Test results published in ChEMBL document CHEMBL1201862, “PubChem BioAssay data set” (2004).
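Compound exposure: 48 hours, 5 concentrations, 96-well plates. GI50 = concentration required for 50% inhibition of growth.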 The source made the active and inactive calls. Rule as the data show it: active = GI50 up to about 1.1 µM and inactive = higher.

How the values were obtained:
Experiment in all cases: growth of human tumour cells (NCI), 48 h
[1] = test system: K562
[2] = test system: SNB-19
[3] = test system: U-251
[4] = test system: HOP-92
[5] = test system: MDA-MB-231
[6] = test system: SK-MEL-5
[7] = test system: COLO 205
[8] = test system: SN12C
[9] = test system: SNB-75
[10] = test system: PC-3
[11] = test system: SK-MEL-2
[12] = test system: MDA-MB-435
[13] = test system: DU-145
[14] = test system: CCRF-CEM
[15] = test system: ACHN
[16] = test system: M14
[17] = test system: LOX IMVI
[18] = test system: NCI-H460
[19] = test system: NCI-H522
[20] = test system: SR

SMILES	GI50 [1]	GI50 [2]	GI50 [3]	GI50 [4]	GI50 [5]	GI50 [6]	GI50 [7]	GI50 [8]	GI50 [9]	GI50 [10]	GI50 [11]	GI50 [12]	GI50 [13]	GI50 [14]	GI50 [15]	GI50 [16]	GI50 [17]	GI50 [18]	GI50 [19]	GI50 [20]
O[C@@H]1C[C@H]2N3CC[C@@]2(c2cc4c(cc2C3)OCO4)[C@H]2O[C@@H]12	> 100 µM (inactive)	> 100 µM (inactive)	> 100 µM (inactive)	> 100 µM (inactive)	> 100 µM (inactive)	< 0.01 µM (active)	< 0.01 µM (active)	> 100 µM (inactive)	> 100 µM (inactive)	> 100 µM (inactive)	> 100 µM (inactive)	> 100 µM (inactive)	> 100 µM (inactive)	> 100 µM (inactive)	> 100 µM (inactive)	> 100 µM (inactive)	> 100 µM (inactive)	> 100 µM (inactive)	> 100 µM (inactive)	
Cc1ccc(-c2cs/c(=N\c3c(C)n(C)n(-c4ccccc4)c3=O)n2CCO)cc1	97.3 µM (inactive)	> 100 µM (inactive)	> 100 µM (inactive)	> 100 µM (inactive)	> 100 µM (inactive)			> 100 µM (inactive)	> 100 µM (inactive)	> 100 µM (inactive)	> 100 µM (inactive)	> 100 µM (inactive)		> 100 µM (inactive)	46.5 µM (inactive)	> 100 µM (inactive)		> 100 µM (inactive)		> 100 µM (inactive)
CCOC(=O)NC(NCC(O)c1ccccc1)(C(F)(F)F)C(F)(F)F (centres undefined)	> 100 µM (inactive)	> 100 µM (inactive)	> 100 µM (inactive)	> 100 µM (inactive)	> 100 µM (inactive)	> 100 µM (inactive)		> 100 µM (inactive)	> 100 µM (inactive)		> 100 µM (inactive)	> 100 µM (inactive)	> 100 µM (inactive)	> 100 µM (inactive)	> 100 µM (inactive)	> 100 µM (inactive)	> 100 µM (inactive)	> 100 µM (inactive)	> 100 µM (inactive)	> 100 µM (inactive)
Cc1cc2oc(=N)c(C#N)c(C)c2cc1C	24.5 µM (inactive)	83.2 µM (inactive)	65.6 µM (inactive)	44.2 µM (inactive)	> 100 µM (inactive)	30.7 µM (inactive)	48.1 µM (inactive)	96.2 µM (inactive)	19.1 µM (inactive)	36.9 µM (inactive)	51.8 µM (inactive)	51.5 µM (inactive)	84.7 µM (inactive)	36.6 µM (inactive)	38.5 µM (inactive)	67.6 µM (inactive)	90.2 µM (inactive)	46.7 µM (inactive)		
NS(=O)(=O)c1nnc(NC(=O)N(c2ccccc2)c2ccccc2)s1	33.5 µM (inactive)	24.4 µM (inactive)	43.7 µM (inactive)	19.1 µM (inactive)	70.1 µM (inactive)	22.7 µM (inactive)	37.9 µM (inactive)	15.8 µM (inactive)	18.5 µM (inactive)	33 µM (inactive)	31.3 µM (inactive)	23.4 µM (inactive)	14.2 µM (inactive)	20.1 µM (inactive)		15.2 µM (inactive)	15.9 µM (inactive)		16.8 µM (inactive)	
CC(C)(C)[Si](C)(C)OCCCCC1CC2(S(=O)(=O)C3=CC=C=C=C3)ON1CC2S(=O)(=O)c1ccccc1 (centres undefined)	> 100 µM (inactive)	> 100 µM (inactive)	> 100 µM (inactive)	> 100 µM (inactive)	> 100 µM (inactive)	> 100 µM (inactive)	> 100 µM (inactive)	> 100 µM (inactive)	> 100 µM (inactive)		> 100 µM (inactive)	> 100 µM (inactive)	> 100 µM (inactive)		> 100 µM (inactive)	> 100 µM (inactive)		> 100 µM (inactive)		
C#CCNC(CSSCC(N)C(=O)O)C(=O)O (centres undefined)		> 100 µM (inactive)	> 100 µM (inactive)	4.73 µM (inactive)	> 100 µM (inactive)	> 100 µM (inactive)	> 100 µM (inactive)		> 100 µM (inactive)	> 100 µM (inactive)	> 100 µM (inactive)	> 100 µM (inactive)	> 100 µM (inactive)	> 100 µM (inactive)	> 100 µM (inactive)	> 100 µM (inactive)			> 100 µM (inactive)	
CCCCn1cnc2c(c(CC#N)nn2-c2ccccc2)c1=N	34 µM (inactive)	> 100 µM (inactive)	37.9 µM (inactive)	52.2 µM (inactive)	43.1 µM (inactive)	20.9 µM (inactive)	30.7 µM (inactive)	70.8 µM (inactive)	45.6 µM (inactive)	36.8 µM (inactive)	23.7 µM (inactive)	32.3 µM (inactive)	76 µM (inactive)	47.6 µM (inactive)	66.1 µM (inactive)	53.2 µM (inactive)	39.3 µM (inactive)	39.9 µM (inactive)	43.1 µM (inactive)	
O=C1N/C(=N\C2CCCCC2)C2(CCN(CCCC3(c4ccc(F)cc4)OCCO3)CC2)N1c1ccccc1		18.5 µM (inactive)	15.9 µM (inactive)			15 µM (inactive)	18.5 µM (inactive)	20.4 µM (inactive)	14.3 µM (inactive)	19.3 µM (inactive)	16 µM (inactive)	19.1 µM (inactive)	17 µM (inactive)	29 µM (inactive)	14.8 µM (inactive)	19.4 µM (inactive)	22.8 µM (inactive)		14.9 µM (inactive)	13.9 µM (inactive)
CCC(=O)O[C@@H]1C2C(OC(C)=O)C34COC(C)([C@@H]3C3C(C[C@]3(C)OC(C)=O)[C@@H](OC(=O)c3ccccc3)C4=O)[C@H](OC(C)=O)[C@@]2(OC(C)=O)C[C@@H]1C (some centres undefined)	> 10 µM (inactive)	14 µM (inactive)	10.4 µM (inactive)	14.7 µM (inactive)		13.5 µM (inactive)	43.5 µM (inactive)	> 100 µM (inactive)	3.01 µM (inactive)		79.4 µM (inactive)			17.5 µM (inactive)	36.1 µM (inactive)	33.9 µM (inactive)	32 µM (inactive)	> 100 µM (inactive)	37.1 µM (inactive)	54.1 µM (inactive)
c1ccc(N2N=C3N(c4ccccc4)C2N3c2ccccc2)cc1	14.7 µM (inactive)	87.1 µM (inactive)	46.8 µM (inactive)	14.1 µM (inactive)	57.3 µM (inactive)	21.6 µM (inactive)	19.5 µM (inactive)	48 µM (inactive)	17.8 µM (inactive)	44.5 µM (inactive)	24.3 µM (inactive)	17.6 µM (inactive)	56.5 µM (inactive)	20.7 µM (inactive)	40.5 µM (inactive)	20.3 µM (inactive)	21.1 µM (inactive)	31.1 µM (inactive)	21.6 µM (inactive)	
NC(=O)c1cnc2sc3ccccc3n2c1=O	> 100 µM (inactive)	> 100 µM (inactive)		91.4 µM (inactive)	> 100 µM (inactive)	> 100 µM (inactive)	> 100 µM (inactive)	> 100 µM (inactive)	> 100 µM (inactive)	> 100 µM (inactive)	> 100 µM (inactive)		> 100 µM (inactive)	> 100 µM (inactive)	> 100 µM (inactive)	> 100 µM (inactive)	> 100 µM (inactive)	> 100 µM (inactive)	74 µM (inactive)	> 100 µM (inactive)
Cc1cc(C)c2cc(N)c(Cl)nc2n1		> 100 µM (inactive)	99.5 µM (inactive)	> 100 µM (inactive)	> 100 µM (inactive)	> 100 µM (inactive)	> 100 µM (inactive)	> 100 µM (inactive)	> 100 µM (inactive)	> 100 µM (inactive)	> 100 µM (inactive)	> 100 µM (inactive)	> 100 µM (inactive)	> 100 µM (inactive)	> 100 µM (inactive)	> 100 µM (inactive)		96.4 µM (inactive)	18.7 µM (inactive)	
CCNC1=Nc2ccccc2-n2c(nn3nc4ccccc4c23)N1CC	66.7 µM (inactive)	> 100 µM (inactive)	> 100 µM (inactive)	> 100 µM (inactive)		> 100 µM (inactive)	> 100 µM (inactive)	77.4 µM (inactive)	> 100 µM (inactive)					80 µM (inactive)	> 100 µM (inactive)	> 100 µM (inactive)	> 100 µM (inactive)	> 100 µM (inactive)	72.4 µM (inactive)	34.8 µM (inactive)
CC1OC(OCC2OC(Oc3c(-c4ccc(O)cc4)oc4cc(O)cc(O)c4c3=O)C(OC3OC(C)C(O)C(O)C3O)C(O)C2O)C(O)C(O)C1O (centres undefined)	> 31.6 µM (inactive)	> 100 µM (inactive)	> 100 µM (inactive)	> 100 µM (inactive)		> 100 µM (inactive)	> 46 µM (inactive)	> 100 µM (inactive)	> 100 µM (inactive)		> 100 µM (inactive)			> 51.5 µM (inactive)	> 67.6 µM (inactive)	> 100 µM (inactive)	> 63.1 µM (inactive)	> 68.9 µM (inactive)	> 100 µM (inactive)	> 100 µM (inactive)
CC(C)CCCC(=O)CCCCCCC(=O)CCN(O)C(=O)C(N)CO (centres undefined)	28.3 µM (inactive)	22.5 µM (inactive)	21.8 µM (inactive)		16.2 µM (inactive)	17.5 µM (inactive)	23.7 µM (inactive)	16.9 µM (inactive)	10.8 µM (inactive)	12.6 µM (inactive)	17.1 µM (inactive)	25.8 µM (inactive)	18.3 µM (inactive)	4.62 µM (inactive)	16.1 µM (inactive)	20.2 µM (inactive)	12.2 µM (inactive)			
